Reference: patent US11731977B2, “SGC stimulators” (Cyclerion Therapeutics, Inc., priority 2016, dated 2023)

How the values were obtained:
[1] = system: Sprague-Dawley rats, streptozotocin model; experiment: Rat model of diabetic neuropathy (STZ model), paw pressure test (Example 14); type: in vivo; conditions: Compound I-1 10 mg/kg p.o., gabapentin 100 mg/kg p.o., morphine 4 mg/kg s.c., mean±s.e.m.
male Long Evans rats = experiment: Novel Object Recognition (NOR) test, MK-801-induced memory disruption (Example 10); type: in vivo, rat; conditions: for Recognition Index, Mean: 0 to 3 minute time bin
Excerpt: Objective. To assess the efficacy of compounds of the invention in reversing memory disruption induced by MK-801 using the Novel Object Recognition (NOR) test in male Long Evans rats. The NOR is a test of recognition learning and memory retrieval, which takes advantage of the spontaneous preference of rodents to investigate a novel object compared with a familiar one (Ennaceur and Delacour, 1988). […] The NOR test has been employed extensively to assess the potential cognitive-enhancing properties of novel test compounds. […] In the present study, a memory saving model was used to test the novel compound—MK-801 (Dizocilpine), an uncompetitive antagonist of the NMD A receptor was used to cause deficit of recognition memory. Compounds of the invention were evaluated through its efficacy in reversing memory impairment.
Animals. Adult male Long-Evans rats (275-299 gram at arrival from Envigo, Indianapolis, Ind.) were used in this study. Rats were placed in the experimental rooms and assigned unique identification numbers (tail marks). Rats were housed 2 per cage in polycarbonate cages with filter tops and acclimated for at least 7 days prior to testing. Animal room was maintained in a 12/12 h light/dark cycle (lights on at 07.00 EST), 22±1° C. and relative humidity at approximately 50%. Food and water were provided ad libitum. All animals were examined, handled and weighed prior to the study to assure adequate health and to minimize the non-specific stress associated with testing. Each animal was randomly assigned across the treatment groups. The experiments were conducted during the animal's light cycle phase.
MK-801 (0.1 mg/kg; Sigma-Aldrich) was dissolved in saline and injected IP 15 min prior to NOR training.
Galantamine (1 mg/kg; Tocris) was dissolved in saline and injected IP 15 minutes prior to training.
Compound I-1 (0.01, 0.1, and 1 mg/kg) was oral administrated 60 minutes prior to training. The dose volume was 4 ml/kg
Experimental procedures. NOR test was conducted in an open-field arena (40×40 cm) placed in a sound-attenuated room under dimmed lighting. Each rat was tested separately and care was taken to remove olfactory/taste cues by cleaning the arena and test objects with 70% alcohol between trials and rats. All training and testing trials were video-taped and scored by an observer blind to treatments.
On Days 1 and 2, rats were allowed to freely explore the arena (no objects inside) for a 5-minute habituation period. On Day 3 (training and testing day), rats were administered vehicle (saline), galantamine or compound solutions followed by MK-801 or vehicle (saline). After the pretreatment time, each animal was placed into the test arena in the presence of two identical objects. Each rat was placed in the arena facing the same direction at the same position, and the time spent actively exploring the objects during a 3-minute training period (T1) was recorded. The rat was returned to its home cage following training. NOR test (T2) was conducted 1 hours after T1. Each rat was placed back into the test arena in the presence of one familiar object and one novel object for 5 minutes, and the time spent exploring both objects was recorded during 0-1, 0-3 and 0-5 min time ranges. The presentation order and position of the objects (left/right) in T2 was randomized between rats to prevent bias from order or place preference.
Statistical Analysis. Data of NOR test (T2) were expressed as Recognition Index, which is defined as the ratio of the time spent exploring the novel object over the total time spent exploring both objects (Novel/(Familiar+Novel)×100%) during the test session. Data were analyzed by using one-way ANOVA followed by Fisher's LSD post hoc test on 0-1, 0-3 and 0-5 minute time range separately, with significance set at P<0.05. […] And then statistical outliers that fell above or below two standard deviations from the mean were removed from the final analysis. […]

rats [2] = experiment: Inflammatory pain: kaolin, gait score (Example 13); type: in vivo, rat; conditions: Indomethacin 30 mg/kg p.o.
Description: Kaolin. Induction: In rats, unilateral arthritis was induced by an intra-articular injection of a 10% kaolin suspension into the knee joint of the right hind paw under gas anesthesia (3.5% isoflurane/3 L/min). Gait score: The gait score will be evaluated 3 h 30 min after kaolin administration by:
2: intermittent raising of the paw

rats [3] = experiment: Inflammatory pain: carrageenan, paw pressure test (Example 13); type: in vivo, rat; conditions: Indomethacin 30 mg/kg p.o.
rats [4] = experiment: Acute and tonic pain: healthy rats, tail flick test (Example 13); conditions: Morphine 4 mg/kg s.c.
Description: Tail Flick Test. A radiant heat was applied on the tail. When the rat felt discomfort, it reacted by a sudden tail movement (tail flick) which automatically stopped the stimulation and the timer for the measurement by the animal reaction time or nociceptive reaction latency (period from the beginning of the stimulation until detection of the response of the animal). A cut-off was previously fixed at 10 sec in order to prevent tissue damage.
(§1) Testing: 120 minutes after treatment. N=4/model/test. Results are expressed for each group as a percentage of activity calculated from the mean value of the vehicle-treated animals and compared to naïve animals, control paw, or cut-off value, depending on the test.

rats [5] = experiment: Post-operative pain: Brennan model, electronic Von Frey test (Example 13); type: in vivo, rat; conditions: Morphine 4 mg/kg s.c.
Excerpt: Surgery: Surgery was done under gas anesthesia (2.5% isoflurane/3 L/min). For all rats, the plantar aspect of the left hind paw was exposed and a 1 cm longitudinal incision was made using a surgical blade, through the skin and fascia of the plantar aspect of the foot, starting 0.5 cm from the proximal edge of the heel and extending toward the toes. The plantaris muscle was elevated and incised longitudinally whereas the insertions remained intact. After hemostasis with gentle pressure, the skin was stitched up with two sutures. After surgery, animals recovered in their cages.
Electronic Von Frey Test: Tactile allodynia was assessed using the electronic Von Frey test 24 h after surgery. […] The apparatus exerted a steady force on the hind paws. […] Each reaction threshold measurement was repeated three times for both hind paws with intervals of approximately 2 to 3 mins.

rats [6] = experiment: Acute and tonic pain: healthy rats, paw pressure test (Example 13); conditions: Morphine 4 mg/kg s.c.
Description: Paw Pressure Test. Static mechanical hyperalgesia is measured. This test requires the application of an increasing pressure on the hind paws between a flat surface and a blunt pointer. To evaluate the analgesic action of a compound, one hind paw of the animal was inflamed by an injection or injured by ligation, while the other hind paw was not injured or inflamed. The apparatus exerted a steadily increasing force on the hind paws. The reaction threshold was determined as the pressure (g) required to elicit paw withdrawal and/or vocalization. The animals were gently handled by the experimenter and static mechanical hyperalgesia were assessed two times for both hind paws.
as §1

rats [7] = experiment: Acute and tonic pain: formalin test, score (Example 13); type: in vivo, rat; conditions: Morphine 4 mg/kg s.c.
Description: Formalin Test. 2.5% formalin solution was injected by subplantar route into the right hind paw. Scoring of pain behavior was performed in rats for 36 minutes every 3 minutes according to the following scores:
0=normal behavior of the injected hind limb to support the body
1=slight touching of the injected paw on the floor to lightly support or not support the body
2=total withdrawal of the injected paw
3=licking, biting or shaking of the injected paw

[8] = D18, 60 min post administration
[9] = D18, 120 min post administration

## NCC1(CC(=O)O)CCCCC1 [Gabapentin]
[1]; [8]
  nociceptive threshold (paw pressure test): 272 ± 6.6 g
[1]; [9]
  nociceptive threshold (paw pressure test): 302 ± 17.7 g
[1]; D21, 120 min after dosing
  nociceptive threshold (paw pressure test): 274 ± 19.2 g

## COc1ccc2c3c1O[C@H]1C[C@@H](O)C=C[C@@]31CCN(C)C2 [Galantamine, reference compound]
Male Long Evans rats; Galantamine (1 mg/kg IP) + MK-801
  Recognition Index, Mean: 66.2%

## COc1ccc2c(c1)c(CC(=O)O)c(C)n2C(=O)c1ccc(Cl)cc1 [Indomethacin, reference compound]
Rats [2]
  % of activity vs. vehicle: 58%
Rats [3]
  % of activity vs. vehicle: 100%

## C[C@]12N[C@H](Cc3ccccc31)c1ccccc12 [MK-801, MK-801 (Dizocilpine), reference compound]
Male Long Evans rats; Vehicle + MK-801 (0.1 mg/kg IP)
  Recognition Index, Mean: 54.1%
Male Long Evans rats; MK-801 0.1 mg/kg IP, 0-1, 0-3 and 0-5 min
  effect on recognition memory (Recognition Index approaching chance level, 50%): caused a strong memory deficit

## CN1CC[C@]23c4c5ccc(O)c4O[C@H]2[C@@H](O)C=C[C@H]3[C@H]1C5 [Morphine, reference compound]
Rats [4]
  % of activity vs. vehicle: 66%
[1]; [8]
  nociceptive threshold (paw pressure test): 420 ± 35 g
[1]; [9]
  nociceptive threshold (paw pressure test): 317 ± 27.6 g
[1]; D21, 120 min after dosing
  nociceptive threshold (paw pressure test): 283 ± 16.7 g
Rats [5]
  % of activity vs. vehicle: 88%
Rats [6]
  % of activity vs. vehicle: 69%
Rats [7]; Formalin test - score (early phase)
  % of activity vs. vehicle: 57%
Rats [7]; Formalin test - score (late phase)
  % of activity vs. vehicle: 38%
